Measurements as given in US6545040B1, “Method of lowering the blood pressure” (Janssen Pharmaceutica N.V., priority 1988, dated 2003).

System: spontaneous hypertensive rats
Experiment: Blood pressure and heart rate in conscious spontaneous hypertensive rats after intraperitoneal injection
Assay type: in vivo
Settings: alone
Procedure: Adult spontaneous hypertensive rats (6 months of age) were anesthetized by ether inhalation. The femoral artery was dissected and cannulated, and the catheter was connected to a strain-gauge blood pressure transducer. When the animals were fully awake, they were restrained and the systolic and diastolic arterial blood pressure were continuously recorded. An observation period of at least 30 min preceded the administration of the test compound. All test compounds were dissolved in 20% polypropylene glycol and injected intraperitoneally. After administration of the test drug the systolic and diastolic arterial blood pressure and the heart rate were recorded during a period of 120 minutes.

[1] = 1.25 mpk i.p., treated vs untreated animals

O[C@@H](CNC[C@H](O)[C@H]1CCc2cc(F)ccc2O1)[C@@H]1CCc2cc(F)ccc2O1 [compound 1]
Δ% change in diastolic blood pressure (DBP), average 120 min [1]: +2.1%
Δ% change in heart rate (HR), average 120 min [1]: 0.5%
Δ% change in systolic blood pressure (SBP), average 120 min [1]: 0%
Δ% change in diastolic blood pressure (DBP), average 120 min (2.5 mpk i.p.): 0%
Δ% change in heart rate (HR), average 120 min (2.5 mpk i.p.): 0%
Δ% change in systolic blood pressure (SBP), average 120 min (2.5 mpk i.p.): −7%

Cc1ccc(N(CC2=NCCN2)c2cccc(O)c2)cc1 [Phentolamine, phentolamine]
Δ% change in diastolic blood pressure (DBP), average 120 min (0.63 mpk i.p.): −13.1%
Δ% change in heart rate (HR), average 120 min (0.63 mpk i.p.): +5.1%
Δ% change in systolic blood pressure (SBP), average 120 min (0.63 mpk i.p.): −9.85%

COc1cc2nc(N3CCN(C(=O)c4ccco4)CC3)nc(N)c2cc1OC [Prazosin, prazosin]
Δ% change in diastolic blood pressure (DBP), average 120 min (0.01 mpk i.p.): −11.3%
Δ% change in heart rate (HR), average 120 min (0.01 mpk i.p.): +1.6%
Δ% change in systolic blood pressure (SBP), average 120 min (0.01 mpk i.p.): −10.9%

COCCc1ccc(OCC(O)CNC(C)C)cc1 (stereo not drawn) [Metoprolol, metoprolol]
Δ% change in diastolic blood pressure (DBP), average 120 min (10 mpk i.p.): +12.8%
Δ% change in heart rate (HR), average 120 min (10 mpk i.p.): −16.6%
Δ% change in systolic blood pressure (SBP), average 120 min (10 mpk i.p.): −1.2%

CC(C)NCC(O)COc1ccc(CC(N)=O)cc1 (stereo not drawn) [Atenolol, atenolol]
Δ% change in diastolic blood pressure (DBP), average 120 min (10 mpk i.p.): +5.9%
Δ% change in heart rate (HR), average 120 min (10 mpk i.p.): −28.1%
Δ% change in systolic blood pressure (SBP), average 120 min (10 mpk i.p.): −3.7%

NNc1nncc2ccccc12 [Hydralazine, hydralazine]
Δ% change in diastolic blood pressure (DBP), average 120 min (0.63 mpk i.p.): −9.9%
Δ% change in heart rate (HR), average 120 min (0.63 mpk i.p.): −1.45%
Δ% change in systolic blood pressure (SBP), average 120 min (0.63 mpk i.p.): −7.5%

CC(C)NCC(O)COc1cccc2ccccc12 (stereo not drawn) [Propranolol, propranolol]
Δ% change in diastolic blood pressure (DBP), average 120 min (5 mpk i.p.): +12.4%
Δ% change in heart rate (HR), average 120 min (5 mpk i.p.): −20.7%
Δ% change in systolic blood pressure (SBP), average 120 min (5 mpk i.p.): −2%
